From ChEMBL document CHEMBL1909046, “DrugMatrix in vitro pharmacology data”
*1 amine or outer side, *2 acyl side, *3 side chain or, on linkers, in order; H or OH if unused. Where a SMILES comes first, the peptide text is derived from it. Bridges are numbered along the chain shown (N, C = ends). Roman numbers before positions name the chains, in order. [ ]: non-standard residue; d: D form. Actinocin(1to9) = Cc1c2oc3c(C)ccc(C(=O)[*:2])c3nc-2c(C(=O)[*:1])c(N)c1=O; NMeV = CN[C@H](C(=O)O)C(C)C; Sar = CNCC(=O)O

Experiments:
[1] = molecular target: T1, Polyunsaturated fatty acid lipoxygenase ALOX15 (Oryctolagus cuniculus, UniProt P12530); assay: biochemical; format: tissue-based, Reticulocytes; details: reticulocytes;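 further: inhibition of 15-lipoxygenase enzyme activity measured with linoleic acid as the substrate; in other assays of this panel Not Active means under 50% inhibition at 10 µM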
T1 sequence (P12530 whole entry): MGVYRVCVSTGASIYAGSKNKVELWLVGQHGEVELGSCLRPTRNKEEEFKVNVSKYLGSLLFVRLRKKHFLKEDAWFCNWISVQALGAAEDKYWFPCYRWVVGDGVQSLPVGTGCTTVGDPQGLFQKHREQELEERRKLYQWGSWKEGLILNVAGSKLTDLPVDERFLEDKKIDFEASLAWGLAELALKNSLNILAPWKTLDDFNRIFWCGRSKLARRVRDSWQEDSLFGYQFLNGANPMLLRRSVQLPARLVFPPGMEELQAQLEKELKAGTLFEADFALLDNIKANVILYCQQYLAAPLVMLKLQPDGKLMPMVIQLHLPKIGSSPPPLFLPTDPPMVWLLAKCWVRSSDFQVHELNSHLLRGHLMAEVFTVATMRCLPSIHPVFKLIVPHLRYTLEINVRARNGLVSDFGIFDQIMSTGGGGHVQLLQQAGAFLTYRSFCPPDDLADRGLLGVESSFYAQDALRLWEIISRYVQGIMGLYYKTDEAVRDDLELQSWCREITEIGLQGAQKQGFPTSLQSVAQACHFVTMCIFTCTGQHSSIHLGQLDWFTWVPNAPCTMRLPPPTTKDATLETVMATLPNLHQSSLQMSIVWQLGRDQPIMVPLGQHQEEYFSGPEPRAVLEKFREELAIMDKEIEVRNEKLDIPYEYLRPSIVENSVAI

Melanocortin receptor 4 = Melanocortin receptor 4 (Homo sapiens, UniProt P32245); format: cell membranes, HEK293, Membrane; details: hek293; further: in other assays of this panel Not Active means under 50% inhibition at 10 µM
[2] = DRUGMATRIX: Atrial Natriuretic Factor (ANF) radioligand binding (ligand: [125I] ANF (rat)); format: cell membranes, Cavia porcellus, Dunkin-Hartley, Adrenal gland, Membrane; details: Not Active = under 50% inhibition at 10 µM
[3] = DRUGMATRIX: Calcium Channel Type L, Dihydropyridine radioligand binding (ligand: [3H] Nitrendipine); format: cell membranes, Rattus norvegicus, Wistar, Cerebral cortex, Membrane; details: Not Active = under 50% inhibition at 10 µM
Vasopressin V1a receptor = Vasopressin V1a receptor (Homo sapiens, UniProt P37288); format: cell membranes, Membrane; details: hek293; further: in other assays of this panel Not Active means under 50% inhibition at 10 µM
[4] = molecular target: T2, 3-hydroxy-3-methylglutaryl-coenzyme A reductase (Homo sapiens, UniProt P04035); parameters: species or system Escherichia coli;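 further: enzyme inhibition assay of HMG-CoA reductase using radiolabeled [14C]HMG-CoA as substrate; in other assays of this panel Not Active means under 50% inhibition at 10 µM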
T2 sequence (P04035 whole entry): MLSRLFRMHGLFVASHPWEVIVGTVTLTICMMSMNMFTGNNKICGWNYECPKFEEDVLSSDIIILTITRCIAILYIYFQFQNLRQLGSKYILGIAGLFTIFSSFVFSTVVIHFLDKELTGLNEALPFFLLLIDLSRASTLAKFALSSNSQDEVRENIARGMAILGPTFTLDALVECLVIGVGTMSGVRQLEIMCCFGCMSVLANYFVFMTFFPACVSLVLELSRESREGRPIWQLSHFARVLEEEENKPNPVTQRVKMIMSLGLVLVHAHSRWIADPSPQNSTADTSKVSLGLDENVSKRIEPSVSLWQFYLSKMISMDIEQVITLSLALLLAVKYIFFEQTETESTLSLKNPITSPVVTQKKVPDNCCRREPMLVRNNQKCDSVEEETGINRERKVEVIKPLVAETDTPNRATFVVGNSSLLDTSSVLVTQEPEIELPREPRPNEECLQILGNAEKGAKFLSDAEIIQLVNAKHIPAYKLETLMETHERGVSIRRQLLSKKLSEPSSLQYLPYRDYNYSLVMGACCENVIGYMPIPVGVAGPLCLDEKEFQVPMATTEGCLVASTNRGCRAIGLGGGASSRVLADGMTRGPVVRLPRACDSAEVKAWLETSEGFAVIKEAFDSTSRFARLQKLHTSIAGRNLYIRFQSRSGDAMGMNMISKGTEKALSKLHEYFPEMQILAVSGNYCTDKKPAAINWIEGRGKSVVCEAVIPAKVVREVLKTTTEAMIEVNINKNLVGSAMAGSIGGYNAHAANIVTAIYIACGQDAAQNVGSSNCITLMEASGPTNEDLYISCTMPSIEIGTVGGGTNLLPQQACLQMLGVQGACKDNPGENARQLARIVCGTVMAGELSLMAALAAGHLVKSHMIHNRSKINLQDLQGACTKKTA

[5] = molecular target: Tyrosine-protein kinase Fyn (Homo sapiens, UniProt P06241); assay: biochemical; format: cell-based, Insect cells; details: insect cells
Chain of Tyrosine-protein kinase Fyn (P06241 whole entry): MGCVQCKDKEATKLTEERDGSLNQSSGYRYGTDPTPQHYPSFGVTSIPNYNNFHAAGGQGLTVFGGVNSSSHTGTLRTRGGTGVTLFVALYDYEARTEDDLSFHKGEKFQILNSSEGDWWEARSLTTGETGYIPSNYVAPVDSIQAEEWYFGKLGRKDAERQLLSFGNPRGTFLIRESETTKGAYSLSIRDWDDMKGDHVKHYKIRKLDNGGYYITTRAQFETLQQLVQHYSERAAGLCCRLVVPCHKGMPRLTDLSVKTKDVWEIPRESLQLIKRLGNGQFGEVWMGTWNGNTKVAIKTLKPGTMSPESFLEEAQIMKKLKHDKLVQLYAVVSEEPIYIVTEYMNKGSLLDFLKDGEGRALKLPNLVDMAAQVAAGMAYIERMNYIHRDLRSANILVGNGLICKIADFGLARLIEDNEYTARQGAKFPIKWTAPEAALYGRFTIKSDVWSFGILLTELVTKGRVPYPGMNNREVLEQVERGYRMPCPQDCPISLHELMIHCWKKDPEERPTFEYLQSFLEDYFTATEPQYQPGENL

Chain of Melanocortin receptor 4 (P32245 whole entry): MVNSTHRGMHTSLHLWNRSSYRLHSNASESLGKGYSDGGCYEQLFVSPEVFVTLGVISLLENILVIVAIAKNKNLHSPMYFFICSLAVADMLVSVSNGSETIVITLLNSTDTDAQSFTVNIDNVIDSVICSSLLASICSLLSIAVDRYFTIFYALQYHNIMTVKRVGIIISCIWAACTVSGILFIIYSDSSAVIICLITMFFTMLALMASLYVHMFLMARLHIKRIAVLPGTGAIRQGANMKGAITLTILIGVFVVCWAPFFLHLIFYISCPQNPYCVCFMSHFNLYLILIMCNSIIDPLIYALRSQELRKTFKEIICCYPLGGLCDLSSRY
Chain of Vasopressin V1a receptor (P37288 whole entry): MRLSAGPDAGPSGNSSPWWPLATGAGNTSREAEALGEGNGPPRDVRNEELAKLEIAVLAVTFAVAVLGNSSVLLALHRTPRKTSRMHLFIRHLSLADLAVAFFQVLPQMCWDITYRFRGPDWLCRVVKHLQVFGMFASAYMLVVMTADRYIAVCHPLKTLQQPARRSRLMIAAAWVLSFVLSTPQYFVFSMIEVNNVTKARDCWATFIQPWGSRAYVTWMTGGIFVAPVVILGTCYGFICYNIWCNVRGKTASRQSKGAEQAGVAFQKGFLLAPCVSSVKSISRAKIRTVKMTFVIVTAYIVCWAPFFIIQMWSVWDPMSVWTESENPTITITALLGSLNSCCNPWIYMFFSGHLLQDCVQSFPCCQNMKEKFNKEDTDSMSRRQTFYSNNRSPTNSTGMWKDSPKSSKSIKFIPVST

CCCC1O[C@@H]2C[C@H]3[C@@H]4CCC5=CC(=O)C=C[C@]5(C)[C@H]4[C@@H](O)C[C@]3(C)[C@]2(C(=O)CO)O1 (some centres undefined) [BUDESONIDE]
Not Active: IC50 [1] | IC50 (Melanocortin receptor 4) | IC50 [2] | Ki [2] | IC50 [3] | Ki [3] | IC50 (Vasopressin V1a receptor) | IC50 [4] | IC50 [5]

Cc1cc(C2CCCCC2)n(O)c(=O)c1 [CICLOPIROX]
Not Active: IC50 [1] | IC50 (Melanocortin receptor 4) | IC50 [2] | Ki [2] | IC50 [3] | Ki [3] | IC50 (Vasopressin V1a receptor) | IC50 [4] | IC50 [5]

Cc1c(C)c2c(c(C)c1O)CC[C@@](C)(CCC[C@H](C)CCC[C@H](C)CCCC(C)C)O2 [ALPHA-TOCOPHEROL]
Not Active: IC50 [1] | IC50 (Melanocortin receptor 4) | IC50 [2] | Ki [2] | IC50 [3] | Ki [3] | IC50 (Vasopressin V1a receptor) | IC50 [4] | IC50 [5]

Cc1c2oc3c(C)ccc(C(=O)N[C@@H]4C(=O)N[C@H](C(C)C)C(=O)N5CCC[C@H]5C(=O)N(C)CC(=O)N(C)[C@@H](C(C)C)C(=O)O[C@@H]4C)c3nc-2c(C(=O)N[C@@H]2C(=O)N[C@H](C(C)C)C(=O)N3CCC[C@H]3C(=O)N(C)CC(=O)N(C)[C@@H](C(C)C)C(=O)O[C@@H]2C)c(N)c1=O [DACTINOMYCIN] (I: T[dV]P[Sar][NMeV] / II: T[dV]P[Sar][NMeV]; ester I:1-I:C, II:1-II:C; linker I:N-II:N via Actinocin(1to9))
Not Active: IC50 [1] | IC50 (Melanocortin receptor 4) | IC50 [2] | Ki [2] | IC50 [3] | Ki [3] | IC50 (Vasopressin V1a receptor) | IC50 [4] | IC50 [5]

CC1(C)S[C@@H]2[C@H](NC(=O)Cc3ccccc3)C(=O)N2[C@H]1C(=O)O [PENICILLIN G]
Not Active: IC50 [1] | IC50 (Melanocortin receptor 4) | IC50 [2] | Ki [2] | IC50 [3] | Ki [3] | IC50 (Vasopressin V1a receptor) | IC50 [4] | IC50 [5]

C[C@H](CCC(=O)O)[C@H]1CC[C@H]2[C@@H]3[C@H](O)C[C@@H]4C[C@H](O)CC[C@]4(C)[C@H]3C[C@H](O)[C@]12C [CHOLIC ACID]
Not Active: IC50 [1] | IC50 (Melanocortin receptor 4) | IC50 [2] | Ki [2] | IC50 [3] | Ki [3] | IC50 (Vasopressin V1a receptor) | IC50 [4] | IC50 [5]

CN(Cc1ccc(C(C)(C)C)cc1)Cc1cccc2ccccc12 [BUTENAFINE]
Not Active: IC50 [1] | IC50 (Melanocortin receptor 4) | IC50 [2] | Ki [2] | IC50 [3] | Ki [3] | IC50 (Vasopressin V1a receptor) | IC50 [4] | IC50 [5]

N=C(N)NCCN1CCCCCCC1 [GUANETHIDINE]
Not Active: IC50 [1] | IC50 (Melanocortin receptor 4) | IC50 [2] | Ki [2] | IC50 [3] | Ki [3] | IC50 (Vasopressin V1a receptor) | IC50 [4] | IC50 [5]

C[C@H]1O[C@@H](O[C@H]2[C@@H](O)C[C@H](O[C@H]3[C@@H](O)C[C@H](O[C@H]4CC[C@@]5(C)[C@H](CC[C@@H]6[C@@H]5C[C@@H](O)[C@]5(C)[C@@H](C7=CC(=O)OC7)CC[C@]65O)C4)O[C@@H]3C)O[C@@H]2C)C[C@H](O)[C@@H]1O [DIGOXIN]
Not Active: IC50 [1] | IC50 (Melanocortin receptor 4) | IC50 [2] | Ki [2] | IC50 [3] | Ki [3] | IC50 (Vasopressin V1a receptor) | IC50 [4] | IC50 [5]

CCCCc1nc(Cl)c(CO)n1Cc1ccc(-c2ccccc2-c2nnn[nH]2)cc1 [LOSARTAN]
Not Active: IC50 [1] | IC50 (Melanocortin receptor 4) | IC50 [2] | Ki [2] | IC50 [3] | Ki [3] | IC50 (Vasopressin V1a receptor) | IC50 [4] | IC50 [5]

Nc1c(Br)cc(Br)cc1CN[C@H]1CC[C@H](O)CC1 [AMBROXOL]
Not Active: IC50 [1] | IC50 (Melanocortin receptor 4) | IC50 [2] | Ki [2] | IC50 [3] | Ki [3] | IC50 (Vasopressin V1a receptor) | IC50 [4] | IC50 [5]
